Experimental data as given in ChEMBL document CHEMBL1201862, “PubChem BioAssay data set” (2004).
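Test compounds were applied to cells in 96-well plates for 48 hours at 5 doses. The concentration for 50% growth inhibition is given as GI50.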 Active and inactive are the calls of the source. No stated cut-off is given here; in the data, active = GI50 up to about 1.1 µM and inactive = higher.

Assays:
Experiment in all cases: inhibition of tumour cell growth, NCI panel, 48 h
NCI-H460 = test system: NCI-H460
Malme-3M = test system: Malme-3M
MCF7 = test system: MCF7
HL-60 = test system: HL-60
BT-549 = test system: BT-549
CCRF-CEM = test system: CCRF-CEM
TK-10 = test system: TK-10
UACC-257 = test system: UACC-257
SK-MEL-5 = test system: SK-MEL-5
HCT-116 = test system: HCT-116
SN12C = test system: SN12C
Hs-578T = test system: Hs-578T
UO-31 = test system: UO-31
U-251 = test system: U-251
RPMI-8226 = test system: RPMI-8226
HOP-92 = test system: HOP-92
ACHN = test system: ACHN
SK-MEL-2 = test system: SK-MEL-2
T47D = test system: T47D
OVCAR-4 = test system: OVCAR-4

Measured: GI50

OC1(c2ccccc2)C2CC=CC2C1(c1ccccc1)c1ccccc1 (configuration not stated)
inactive: NCI-H460 27 µM | Malme-3M 19.5 µM | MCF7 26.4 µM | HL-60 27.8 µM | BT-549 30.3 µM | CCRF-CEM 27.8 µM | TK-10 29.6 µM | UACC-257 27 µM | SK-MEL-5 17.2 µM | HCT-116 31.2 µM | SN12C 30.1 µM | Hs-578T 38.3 µM | UO-31 31.1 µM | U-251 32.5 µM | RPMI-8226 25.6 µM | HOP-92 33.3 µM | ACHN 43.5 µM | SK-MEL-2 12 µM | T47D 23.1 µM

CO/N=C1/C(n2[nH]c(=O)n(-c3ccccc3)c2=O)C2C=CC1n1c(=O)n(-c3ccccc3)c(=O)n12 (configuration not stated)
inactive: NCI-H460 > 100 µM | Malme-3M > 100 µM | MCF7 > 100 µM | HL-60 > 100 µM | BT-549 > 100 µM | CCRF-CEM > 100 µM | TK-10 > 100 µM | UACC-257 > 100 µM | SK-MEL-5 > 100 µM | HCT-116 > 100 µM | SN12C > 100 µM | Hs-578T > 100 µM | UO-31 > 100 µM | U-251 > 100 µM | RPMI-8226 > 100 µM | OVCAR-4 > 100 µM | SK-MEL-2 > 100 µM | T47D > 100 µM

NC1CC(Cl)c2c(Cl)sc(Cl)c21 (configuration not stated)
inactive: NCI-H460 > 100 µM | Malme-3M > 100 µM | MCF7 > 100 µM | HL-60 > 100 µM | BT-549 > 100 µM | CCRF-CEM 34 µM | TK-10 > 100 µM | UACC-257 > 100 µM | SK-MEL-5 > 100 µM | HCT-116 > 100 µM | SN12C > 100 µM | Hs-578T > 100 µM | UO-31 > 100 µM | U-251 > 100 µM | HOP-92 > 100 µM | ACHN > 100 µM | OVCAR-4 > 100 µM | SK-MEL-2 > 100 µM | T47D > 100 µM

Nc1ncc2c(n1)-c1ccccc1OC2N1CCCCC1 (configuration not stated)
inactive: NCI-H460 > 100 µM | MCF7 > 100 µM | HL-60 > 100 µM | BT-549 > 100 µM | CCRF-CEM > 100 µM | TK-10 > 100 µM | UACC-257 > 100 µM | SK-MEL-5 > 100 µM | HCT-116 > 100 µM | SN12C > 100 µM | Hs-578T > 100 µM | UO-31 > 100 µM | U-251 > 100 µM | RPMI-8226 > 100 µM | HOP-92 > 100 µM | ACHN > 100 µM | OVCAR-4 > 100 µM | SK-MEL-2 > 100 µM | T47D > 100 µM

COc1ccc2c(c1)C(=O)OCCC2
inactive: NCI-H460 > 100 µM | MCF7 > 100 µM | HL-60 > 100 µM | BT-549 > 100 µM | CCRF-CEM > 100 µM | TK-10 > 100 µM | UACC-257 > 100 µM | SK-MEL-5 > 100 µM | HCT-116 > 100 µM | SN12C > 100 µM | Hs-578T > 100 µM | UO-31 26.7 µM | U-251 > 100 µM | RPMI-8226 > 100 µM | HOP-92 > 100 µM | ACHN > 100 µM | OVCAR-4 > 100 µM | SK-MEL-2 > 100 µM | T47D > 100 µM

CCOc1cc(NC(C)=O)ccc1C(=O)NNS(=O)(=O)c1ccc(Cl)cc1Cl
inactive: NCI-H460 > 50 µM | Malme-3M > 50 µM | MCF7 26.4 µM | HL-60 > 50 µM | BT-549 > 50 µM | CCRF-CEM > 50 µM | UACC-257 > 50 µM | SK-MEL-5 14.6 µM | HCT-116 > 50 µM | SN12C > 50 µM | Hs-578T > 50 µM | UO-31 > 50 µM | RPMI-8226 7.48 µM | HOP-92 > 50 µM | ACHN > 50 µM | OVCAR-4 > 50 µM | SK-MEL-2 > 50 µM | T47D > 50 µM
